According to US7598340B2, “Monoclonal antibody to a human MDR1 multidrug resistance gene product, and uses” (The Board of Trustees of the University of Illinois, priority 1992, dated 2009):

Key:
[1] = test system: BALB/c 3T3-1000 fibroblasts; assay: Colony formation by BALB/c 3T3-1000 fibroblasts in the presence of vinblastine; format: cell-based, mouse; details: BALB/c 3T3-1000 cell line
Protocol: The effects of antibody preparations of the invention on drug cytotoxicity may be assessed by incubating suspensions of MDR and control cells with the antibody preparation, then testing for cell growth inhibition by colony formation, plating efficiency, and/or MTT growth inhibition assay^13,16 in the absence and presence of an anti-cancer drug such as one of the vinca alkaloids. BALB/c 3T3-1000 fibroblasts are particularly suitable for plating efficiency assays and the MDR cell line K562/inf for the growth inhibition assay. The effects of antibody preparations on drug cytotoxicity may be assayed by incubating cell suspensions with a purified antibody preparation, and plating cells in microtitre plate wells for colony or growth inhibition assays in the presence of the antibody preparation.
All drugs were obtained from Sigma, except for G418 (Gibco) and taxol (gift of Dr. S. B. Horwitz). Colony formation and MTT assays for cell growth inhibition were carried out by art-recognized procedures. […]
In the system described in FIG. 3B, we examined the effects of different mAb on colony formation by BALB/c 3T3-1000 fibroblasts in the presence of vinblastine. […] Colonies were fixed with methanol or ethanol and stained with crystal violet on day 11, and scored for plating efficiency.

BALB/c 3T3-1000 cells = assay: Cell growth inhibition of BALB/c 3T3-1000 cells by vinblastine with mAb or verapamil; format: cell-based, mouse; details: 350 ng/ml vinblastine

CC[C@]1(O)C[C@@H]2CN(CCc3c([nH]c4ccccc34)[C@@](C(=O)OC)(c3cc4c(cc3OC)N(C)[C@H]3[C@@](O)(C(=O)OC)[C@H](OC(C)=O)[C@]5(CC)C=CCN6CC[C@]43[C@@H]65)C2)C1 [vinblastine]
ID90 of vinblastine [1]: 0.35 µg/mL

COc1ccc(CCN(C)CCCC(C#N)(c2ccc(OC)c(OC)c2)C(C)C)cc1OC (centres unmarked) [Verapamil, verapamil]
concentration achieving the same potentiation of vinblastine toxicity (BALB/c 3T3-1000 cells): 3 µM
